From EP0437336B1, “Biophosphoryl hydrazines and their use as pesticides” (priority 1990, dated 1991)
In brackets after ≈: the same amount, converted by molar mass. Where two headings read alike, the source gives them in different places.

Experiments:
[1] = test system: Southern Armyworm; assay: Biological Method D: Foliar Insecticidal Activity Test, Southern Armyworm test; assay type: in vivo, Spodoptera eridania; set-up: key: I = inactive at concentration listed
[2] = test system: southern corn rootworm, Diabrotica undecimpunctata howardi; assay: Biological Method A: Corn Rootworm Screening Test (treated non-aggressive soil); details: soil concentration giving 90% mortality, 10 days at 27°C
[3] = test system: Japanese beetle (Popillia japonica ) eggs; assay: Biological Method E: Turf Grub Insecticidal Activity Test; assay type: in vivo; details: soil incorporation
Experimental: Biological Method E: Turf Grub Insecticidal Activity Test
These will give soil concentrations of […] (1.6, 0.8, 0.4, and 0.2 pounds per acre), respectively.
Ten milliliters of test solution were incorporated into 250 ml of moistened soil (clay loam, 90% : humus soil, 10%) and allowed to air in an uncapped pint jar for about 2 hours. After airing, a small amount of seed mixture containing equal parts of redtop (Agrostis alba ) and white clover (Trifolium repens ) was incorporated into the soil. Two 50 ml quantities of soil were placed into dep 88.72 cm³ (3 ounce) ointment tin cans.
Ten Japanese beetle (Popillia japonica ) eggs were placed into the soil in each can and the can capped with its tined lid. Treatments were held for 23 days at 30 degrees Centigrade.
Upon termination, the soil was sieved to isloate the grubs. The percent mortality was determined for each concentration.

[4] = test system: Green Peach Aphid; assay: Biological Method D: Foliar Insecticidal Activity Test, aphid test; assay type: in vivo, Myzus persicae; set-up: key: I = inactive at concentration listed
[5] = test system: Boll Weevil; assay: Biological Method D: Foliar Insecticidal Activity Test, boll weevil test; assay type: in vivo, Anthonomous grandis; set-up: key: I = inactive at concentration listed
[6] = test system: Mexican Bean Beetle; assay: Biological Method D: Foliar Insecticidal Activity Test, Mexican Bean Beetle test; assay type: in vivo, Epilachna varivestis; set-up: key to LC50 BB 96 hrs / LC50 BB 48 hrs.: I = inactive at concentration listed; details: Method D foliar test, Mexican Bean Beetle; for LC50: Epilachna varivestis
[7] = test system: Two-Spotted Spider Mite; assay: Biological Method D: Foliar Insecticidal Activity Test, mite test; assay type: in vivo, Tetranychus urticae; set-up: key to LC50 TSM: I = inactive at concentration listed; details: Method D foliar test; Two-Spotted Spider Mite
[8] = test system: southern corn rootworm, Diabrotica undecimpunctata howardi; details: at-planting soil application
[9] = test system: southern corn rootworm, Diabrotica undecimpunctata howardi; details: Diabrotica undecimpunctata, in Zea mays, foliar, 336 h, read-out: foliar systemic nonagressive Method B crw % control at 0.56 kg/ha (0.5 lb/acre)
[10] = 23 days at 30 degrees Centigrade
[11] = 96 hrs, read-out: LC50 BB 96 hrs

Row | Structure (SMILES) | LC50 AW 48 hrs [1] | LC50 AW 96 hrs [1] | primary nonagressive Method A crw LC90 [2] [ppm] | LC95 [3, 10] [kg/ha] | LC95 ([3]; 23 days, value in brackets) [pounds per acre] | LC50 GPA [4] | LC50 BW 48 hrs [5] | LC50 BW 96 hrs [5] | LC50 [6, 11] [µg/mL] | LC50 BB 48 hrs. ([6]; 48 hrs) | LC50 TSM [7] | secondary aggressive Method C crw LC50 ([8]; rated 17 days post-infestation) [kg/ha] | secondary aggressive Method C crw LC50 ([8]; value in brackets) [lb/acre] | pest or weed control at 560 g/ha [9] [%] | LC50 ([6]; 48 hrs, read-out: LC50 BB 48 hrs.) [µg/mL]
1 | CCOP(=S)(NNP(=S)(OCC)OC(C)C)OCC(C)(C)C (stereo not drawn) [Compound 46, N-(O-ethyl O-isopropylthiophosphoryl) N′-(O-ethyl O-neopentylthiophosphoryl) hydrazine] | I | I | 0.08 | < 0.22 | < 0.2 | I | I | I | 45 (≈ 115 µM) | I | I | 0.34 | 0.30 |  | 
2 | CCCOP(=S)(NNP(=S)(OCC)OCC(C)(C)C)OCCC (stereo not drawn) [Compound 41, N-(O,O-dipropylthiophosphoryl) N′-(O-ethyl O-neopentylthiophosphoryl) hydrazine] | I | I | 0.06 | < 0.22 | < 0.2 | I | I | I | 78 (≈ 192 µM) |  | I | 0.3 | 0.27 | 31 | 62 (≈ 153 µM)
